Measurements as given in patent publication US11214540B2, “Compositions for treating neurodegenerative diseases” (COGNITION THERAPEUTICS, INC., priority 2017, dated 2022).
Where two headings read alike, the source gives them in different places.

How the values were obtained:
[1] = test system: Abeta oligomer-induced membrane trafficking deficits in primary hippocampal neurons; assay: Membrane Trafficking/Exocytosis (MTT) assay, Abeta oligomer effect on neurons; assay type: cell-based, rat;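 as to EC50 Abeta: compound potency for inhibiting the Abeta oligomer effect on exocytosis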
Experimental: Compounds according to any embodiment described herein, were tested for their ability to inhibit an amyloid beta effect on the cells. The compounds generally were able to inhibit the amyloid beta effect as measured by a membrane trafficking/exocytosis assay (MTT assay). The rationale for this assay was as follows:
The present exocytosis assay was adapted for use with mature primary neuronal cultures grown for 3 weeks in vitro. See WO 2011/106785, which is incorporated herein by reference in its entirety. Abeta oligomers cause a dose-dependent decrease in the amount of intracellular vesicles (puncta) filled with reduced purple formazan as measured via image processing using a Cellomics VTI automated microscopy system. […] Increasing the amount of Abeta oligomers eventually results in overt toxicity. Thus, the concentration of neuroactive Abeta oligomers used in the assay is much lower than that causing cell death. […] When configured in this manner, the assay is able to detect compounds that inhibit nonlethal effects of Abeta oligomer whether these compounds act via disruption of oligomers, inhibition of oligomer binding to neurons, or counteraction of signal transduction mechanisms of action initiated by oligomer binding.
Primary hippocampal neurons from E18 Sprague-Dawley rat embryos were plated at optimized concentrations in 384 well plates in NB media (Invitrogen). Neurons were maintained in cultures for 3 weeks, with twice weekly feeding of NB media with N2 supplement (Invitrogen).
A test compound was added to cells at concentrations ranging from 100 uM to 0.001 nM followed by addition of vehicle or Abeta oligomer preparations (3 μM total Abeta protein concentration), and incubated for 1 to 24 hr at 37° C. in 5% CO2. MTT reagent (3-(4,5-dimethylthizaol-2yl)-2,5diphenyl tetrazolium bromide) (Roche Molecular Biochemicals) was reconstituted in phosphate buffered saline to 5 mg/mL. 10 μL of MTT labeling reagent is added to each well and incubated at 37° C. for 1 h, then imaged. Exocytosis was assessed by automated microscopy and image processing to quantify the amount of endocytosed and exocytosed formazan.
Each assay plate was formatted so that compounds are tested with and without Abeta oligomer on each plate. This design eliminates toxic or metabolically active compounds early on in the screening cascade (at the level of the primary screen). Reduced formazan was first visible in intracellular vesicles. Eventual formazan exocytosis was accelerated via Abeta oligomers.
Human amyloid peptide 1-42 was obtained from a number of commercial vendors such as California Peptide, with lot-choice contingent upon quality control analysis. Quality controls of oligomer preparations consist of Westerns to determine oligomer size ranges and relative concentrations, and the MTT assay to confirm exocytosis acceleration without toxicity. Toxicity was monitored in each image-based assay via quantification of nuclear morphology visualized with the DNA binding blue dye DAPI (Invitrogen). Nuclei that are fragmented are considered to be in late stage apoptosis (Majno and Joris '95) and the test would be rejected. Peptide lots producing unusual peptide size ranges or significant toxicity at a standard 1.5 μM concentration on neurons would also be rejected.
Data handling and analysis were accomplished by Cellomics VTI image analysis software and STORE automated database software. Because of the low dynamic range and neuronal well-to-well variability after three weeks in culture, statistical comparisons are made via pairwise Tukey-Kramer analysis to determine the significance of the separation between compound+Abeta oligomers from Abeta alone, and between compound alone from vehicle. The ability of mature primary neurons to more closely approximate the electrophysiologically mediated signal transduction network of the adult brain justifies this screening strategy. […]

[2] = log P; assay type: physicochemical; details: for logP: octanol/water
Description: The term “log P” refers to the partition coefficient of a compound. The partition coefficient is the ratio of concentrations of un-ionized compound in each of two solution phases, for example, octanol and water. To measure the partition coefficient of ionizable solute compounds, the pH of the aqueous phase is adjusted such that the predominant form of the compound is un-ionized. The logarithm of the ratio of concentrations of the un-ionized solute compound in the solvents is called log P. The log P is a measure of lipophilicity. For example, log Poct/wat=log([solute]octanol/[solute]un-ionized,water).
Combined Results for particular compounds described herein, with respect to log P, membrane trafficking (uM), sigma-2 receptor affinity, sigma-1 receptor affinity microsomal stability in mouse liver microsomes (MLM) (t1/2, min), t1/2 normalized to CT)10914 and in vitro toxicity potassium channel hERG (IC50, nM) are provided in Table 1: […]

[3] = membrane trafficking, read-out: EC50 Abeta

Compound	log P [2]	EC50 [1, 3]	also measured
COc1cc(CCC(C)NCc2ccc(C(F)(F)F)cc2)ccc1O (stereo not drawn) [4-(3-(4-(trifluoromethyl)benzylamino)butyl)-2-methoxyphenol, reference compound]	–	–	effect on membrane trafficking deficits induced by AD brain-derived Abeta oligomers ([1]; AD brain-derived Abeta oligomers): eliminates the membrane trafficking deficits; effect on trafficking when dosed in the absence of Abeta ([1]; substance alone, no Abeta oligomer): does not affect trafficking
COc1ccc(C(C)(C)CC(C=C(C)C)N2CCC(C(C)C)CC2)cc1 (stereo not drawn) [Compound 86]	6.37	0.22 µM	–
CC(C)=CC(CC(C)(C)c1ccc(Cl)cc1)N1CCC(C(C)C)CC1 (stereo not drawn) [Compound 87]	7.13	20 µM	–
CC(C)=CC(CC(C)(C)c1ccc(Cl)cc1)N1CCC(c2ccnc(N(C)C)c2)CC1 (stereo not drawn) [Compound 90]	7.02	20 µM	–
CC(C)=CC(CCc1ccc(F)cc1)N1CCOCC1 (stereo not drawn) [Compound 91]	3.99	20 µM	–
CC(C)=CC(CCc1ccc(F)cc1)N1CCCCC1 (stereo not drawn) [Compound 92]	5.06	20 µM	–
COc1ccc(C(C)(C)CC(NCC2CCOCC2)c2ccccc2)cc1 (stereo not drawn) [Compound 115]	4.9	20 µM	–
CC(C)=CC(CC(C)(C)c1ccc(Cl)cc1)N1CCC(C(F)(F)F)CC1 (stereo not drawn) [Compound 123]	6.67	0.3 µM	–
CC(C)=CC(CC(C)(C)c1ccc(F)cc1)N1CCC(Oc2ccccc2)CC1 (stereo not drawn) [Compound 124]	6.45	0.2 µM	–
CC(C)=CC(CC(C)(C)c1ccc(F)cc1)N1CCC(N2CCCC2)CC1 (stereo not drawn) [Compound 125]	5.23	0.25 µM	–
CC(C)=CC(CC(C)(C)c1ccc(C(F)(F)F)cc1)N1CCC(Oc2ccccc2)CC1 (stereo not drawn) [Compound 128]	7.19	20 µM	–
CC(C)=CC(CC(C)(C)c1ccc(C(F)(F)F)cc1)N1CCC(N2CCCC2)CC1 (stereo not drawn) [Compound 130]	5.97	0.3 µM	–
CC(C)=CC(CC(C)(C)c1ccc(F)cc1)N1CCC(C)(C)CC1 (stereo not drawn) [Compound 131]	6.24	20 µM	–
CC(C)=CC(CC(C)(C)c1ccc(Cl)cc1)N1CCC(Oc2ccccc2)CC1 (stereo not drawn) [Compound 132]	6.91	20 µM	–
CC(C)=CC(CC(C)(C)c1ccc(F)cc1)N1CCC(N2CCCCC2)CC1 (stereo not drawn) [Compound 133]	5.68	2.2 µM	–
CC(C)=CC(CC(C)(C)c1ccc(F)cc1)N1CCC(F)CC1 (stereo not drawn) [Compound 134]	5.01	20 µM	–
CC(C)=CC(CC(C)(C)c1ccc(Cl)cc1)N1CCC(N2CCCC2)CC1 (stereo not drawn) [Compound 135]	5.69	20 µM	–
CC(C)=CC(CC(C)(C)c1ccc(C(F)(F)F)cc1)N1CCC(N2CCOCC2)CC1 (stereo not drawn) [Compound 137]	5.34	0.15 µM	–
CC(CC(C)(C)c1ccc(Cl)cc1)N1CCC(O)C1 (stereo not drawn) [Compound 255]	–	15 µM	–
CC(C)(CCN1CCC(C)(c2ccccc2)CC1)c1ccccc1 [Compound 297]	5.81	–	–
COC[C@H]1CCCN1CCC(C)(C)c1ccc(Cl)cc1 [Compound 298]	4.26	–	–
CCOC(=O)C1CCN(CCC(C)(C)c2ccccc2)CC1 [Compound 299]	3.81	–	–
COC[C@H]1CCCN1CCC(C)(C)c1ccccc1 [Compound 300]	3.65	–	–
CC(C)(CCN1CC[C@@H](O)C1)c1ccccc1 [Compound 301]	2.49	–	–
COC[C@@H]1CCCN1CCC(C)(C)c1ccccc1 [Compound 302]	3.65	–	–
COCCOCCC1CCN(CCC(C)(C)c2ccc(Cl)cc2)CC1 [Compound 303]	4.58	–	–

Compound	log P [2]	EC50 [1, 3]	also measured
CC(C)(CCN1CCC(CCO)CC1)c1ccccc1 [Compound 304]	3.38	–	–
COc1cc(CCC(C)(C)N2Cc3cccc(C(=O)N4CCN(C(=O)OCCOC(C)=O)CC4)c3C2)ccc1O [Compound 305]	3.1	–	–
CC(C)(CCN1CCC(CO)CC1)c1ccccc1 [Compound 308]	3.01	–	–
COc1cc(CCC(C)(C)N2Cc3cccc(C(=O)N4CCN(C(=O)OCc5oc(=O)oc5C)CC4)c3C2)ccc1O [Compound 309]	3.96	–	–
COC1CCN(CCC(C)(C)c2ccccc2)CC1 [Compound 310]	3.2	–	–
CCOC(=O)C1CCN(CCC(C)(C)c2ccc(C(F)(F)F)cc2)CC1 [Compound 311]	4.69	–	–
COC[C@H]1CCCN1CCC(C)(C)c1ccc(C(F)(F)F)cc1 [Compound 312]	4.53	–	–
CC(C)(CCN1CCC(C2CCOCC2)CC1)c1ccccc1 [Compound 313]	4.28	–	–
COCCOCCC1CCN(CCC(C)(C)c2ccc(C(F)(F)F)cc2)CC1 [Compound 314]	4.85	–	–
CC(C)(CCN1CC[C@@H](O)C1)c1ccc(C(F)(F)F)cc1 [Compound 315]	3.37	–	–
CC(C)(CCN1CCC(C)(c2ccccc2)CC1)c1ccc(F)cc1 [Compound 316]	4.34	–	–
COC[C@H]1CCCN1CCC(C)(C)c1ccc(F)cc1 [Compound 318]	3.8	–	–
COC[C@@H]1CCCN1CCC(C)(C)c1ccc(F)cc1 [Compound 319]	3.8	–	–
COC(=O)C1CCCN1CCC(C)(C)c1ccc(F)cc1 (stereo not drawn) [Compound 320]	3.62	–	–
COCCCC1CCN(CCC(C)(C)c2ccc(F)cc2)CC1 [Compound 321]	4.61	–	–
CCOC(=O)C1CCN(CCC(C)(C)c2ccc(F)cc2)CC1 [Compound 322]	3.95	–	–
C[C@@H]1CCN(CCC(C)(C)c2ccc(F)cc2)C1 [Compound 323]	4.15	–	–
COCCCC1CCN(CCC(C)(C)c2ccc(Cl)cc2)CC1 [Compound 324]	5.07	–	–
COCCCC1CCN(CCC(C)(C)c2ccccc2)CC1 [Compound 325]	4.47	–	–
COC(=O)C1CCN(CCC(C)(C)c2ccc(F)cc2)CC1 [Compound 326]	3.6	–	–
COC1CCN(CCC(C)(C)c2ccc(C(F)(F)F)cc2)CC1 [Example 191]	–	–	logP [2]: 4.07
CC(C)(CCN1CCC(CO)CC1)c1ccc(C(F)(F)F)cc1 [Example 306]	–	–	logP [2]: 3.89
CC(C)(CCN1CCC(O)(c2ccccc2)CC1)c1ccc(C(F)(F)F)cc1 [Example 307]	–	–	logP [2]: 5.08
COC[C@@H]1CCCN1CCC(C)(C)c1ccc(C(F)(F)F)cc1 [Example 317]	–	–	logP [2]: 4.53
Synthetic Abeta oligomers: Abeta 1-42 oligomers made according to published methods, used as positive controls [reference compound]	–	–	EC50 ([1]; Abeta oligomers dosed alone on neurons, read-out: EC50 in the membrane trafficking assay): 0.82 µM
